This passage reports IC50 and inhibition results from patent publication US7501430B2 (ArQule, Inc., priority 2006, dated 2009).

This assay addresses T1, mutant B-RAF (Homo sapiens, UniProt P15056, V600E).
T1 construct: purchased Upstate (Charlottesville, Va.)
Kind of assay: RAF biochemical assay (MEK-1 phosphorylation, anti-phospho MEK1/2 detection). As to conditions: for inhibition at 10 µM: read-out: Mutant B-RAF % inhibition. On the procedure:
Materials: The RAF kinases and the anti-phospho MEK1/2 antibody were from Upstate (Charlottesville, Va.). The RAF substrate used was full length N-terminal GST-MEK-1, which was expressed in E. coli and purified in-house by HPLC. All proteins were aliquoted and stored at −80° C.
Compounds were serially diluted in assay buffer containing 1% DMSO and 20 μL of test compound at a concentration 3-fold more than the final concentration, and were added to a polypropylene V-well reaction plate. Vehicle control wells received buffer only with DMSO at equivalent concentrations to the test wells. […] These reaction plates were incubated at room temperature for 30 minutes. Capture of MEK-1 was initiated by transferring 50 μl of the reaction mixture to a Nunc Maxisorp™ microplate that is designed for non-specific protein capture. After 30 minute capture of MEK-1 at room temperature, this plate was washed with TBST (6×200 μL/well) to fully terminate the reaction. The plate was then blocked for 1 hour by the addition of 100 μl/well of Superblock™ in phosphate buffered saline (PBS) blocking reagent. Plate was again washed with TBST (6 times with 200 μL/well), followed by the addition of 70 μL/well of Upstate anti-phospho MEK 1/2 diluted 1:1000 in Pierce Superblock (PBS). After a 60 minute incubation, this plate was washed with TBST (6 times with 200 μL/well), and 70 μL of the secondary antibody (Pierce Alkaline Phosphatase tagged goat anti-rabbit) prepared at 1:4000 in Superblock, were added. After a 45 minute incubation at room temperature, the wells of the microplate were washed with TBST (6 times with 200 μL/well), and thereafter 100 μl/well of Attophos™ fluorescent alkaline phosphatase substrate was added according to the manufacturer's instructions (JBL Scientific).

Read-outs that look alike come from different tables or passages of the source.

T1 sequence (P15056 whole entry V600E): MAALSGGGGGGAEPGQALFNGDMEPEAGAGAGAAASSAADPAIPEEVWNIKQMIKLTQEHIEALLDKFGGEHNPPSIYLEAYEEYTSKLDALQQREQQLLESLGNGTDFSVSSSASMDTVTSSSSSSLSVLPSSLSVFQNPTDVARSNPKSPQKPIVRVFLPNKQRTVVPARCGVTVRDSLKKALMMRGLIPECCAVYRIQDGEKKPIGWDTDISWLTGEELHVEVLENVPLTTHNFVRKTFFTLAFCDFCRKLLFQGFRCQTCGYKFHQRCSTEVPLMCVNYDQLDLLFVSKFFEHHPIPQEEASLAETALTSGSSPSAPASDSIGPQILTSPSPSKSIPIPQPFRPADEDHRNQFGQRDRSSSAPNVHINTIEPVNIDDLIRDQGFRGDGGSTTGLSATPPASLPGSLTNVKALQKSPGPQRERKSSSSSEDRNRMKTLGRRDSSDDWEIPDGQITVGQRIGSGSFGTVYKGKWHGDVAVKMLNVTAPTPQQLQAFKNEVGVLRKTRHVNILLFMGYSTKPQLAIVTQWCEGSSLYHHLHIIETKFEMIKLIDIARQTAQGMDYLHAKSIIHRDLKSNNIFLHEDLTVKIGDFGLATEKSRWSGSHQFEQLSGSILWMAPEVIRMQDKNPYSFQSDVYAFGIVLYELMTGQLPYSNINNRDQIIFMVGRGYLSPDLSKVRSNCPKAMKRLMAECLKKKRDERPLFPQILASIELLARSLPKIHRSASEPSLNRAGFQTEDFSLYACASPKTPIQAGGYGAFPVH

In general, IC50 refers to the point on the concentration scale where inhibition reaches its midpoint. As for `O=S(=O)(c1ccc(F)c(Cl)c1)N1CCC[C@@H](Nc2nccc(-c3c(-c4ccc(F)cc4)nc4occn34)n2)C1` [Example 47, N-{(3R)-1-[(3-chloro-4-fluorophenyl)sulfonyl]piper-idin-3-yl}-4-[6-(4-fluorophenyl)imidazo[2,1-b][1,3]oxazol-5-yl]pyrimidin-2-amine], for the setting “read-out: Mutant B-RAF IC50”, the IC50 is 963 nM.

Regarding `CC(C)c1ccc(S(=O)(=O)N2CCC[C@@H](Nc3nccc(-c4c(-c5ccc(F)cc5)nc5occn45)n3)C2)cc1` [Example 48, 4-[6-(4-fluorophenyl)imi-dazo[2,1-b][1,3]oxazol-5-yl]-N-{(3R)-1-[(4-isopropyl-phenyl)sulfonyl]piperidin-3-yl}pyrimidin-2-amine], the IC50 came to 3020 nM.

One may read the inhibition as the relative decrease from the control value, in per cent. With `O=S(=O)(c1ccc(OC(F)(F)F)cc1)N1CCC[C@@H](Nc2nccc(-c3c(-c4ccc(F)cc4)nc4occn34)n2)C1` [Example 49, 4-[6-(4-fluorophenyl)imi-dazo[2,1-b][1,3]oxazol-5-yl]-N-((3R)-1-{(4-(trifluoro-methoxy)phenyl]sulfonyl}piperidin-3-yl)pyrimidin-2-amine], the inhibition at 10 µM was 32%.

Regarding `O=S(=O)(c1cccc(Cl)c1)N1CCC[C@@H](Nc2nccc(-c3c(-c4ccc(F)cc4)nc4occn34)n2)C1` [Example 50, N-{(3R)-1-[(3-chlorophenyl)sulfonyl]piper-idin-3-yl}-4-[6-(4-fluorophenyl)imidazo[2,1-b][1,3]oxazol-5-yl]pyrimidin-2-amine], the inhibition at 10 µM (@ 10 uM) was found to be 35%.

For `O=S(=O)(c1cc(Cl)cc(Cl)c1)N1CCC[C@@H](Nc2nccc(-c3c(-c4ccc(F)cc4)nc4occn34)n2)C1` [Example 51, N-{(3R)-1-[(3,5-dichlorophenyl)sulfonyl]pip-eridin-3-yl}-4-[6-(4-fluorophenyl)imidazo[2,1-b][1,3]oxazol-5-yl]pyrimidin-2-amine], where the note is “@ 10 uM”, the inhibition at 10 µM was 25%.

As to `O=S(=O)(c1cccc(F)c1)N1CCC[C@@H](Nc2nccc(-c3c(-c4ccc(F)cc4)nc4occn34)n2)C1` [Example 52, 4-[6-(4-fluorophenyl)imi-dazo[2,1-b][1,3]oxazol-5-yl]-N-{(3R)-1-[(3-fluorophenyl)sulfonyl]piperidin-3-yl}pyr-imidin-2-amine], the inhibition at 10 µM is 55%.

For the molecule `Cc1ccccc1S(=O)(=O)N1CCC[C@@H](Nc2nccc(-c3c(-c4ccc(F)cc4)nc4occn34)n2)C1` [Example 53, 4-(6-(4-fluorophenyl)imi-dazo[2,1-b][1,3]oxazol-5-yl]-N-{(3R)-1-[(2-methylphenyl)sulfonyl]piperidin-3-yl}pyrimidin-2-amine], the inhibition at 10 µM is 42%.

Regarding `O=S(=O)(c1c(F)cccc1F)N1CCC[C@@H](Nc2nccc(-c3c(-c4ccc(F)cc4)nc4occn34)n2)C1` [Example 54, N-{(3R)-1-[(2,6-difluoro-phenyl)sulfonyl]piperidin-3-yl}-4-[6-(4-fluorophenyl)imidazo[2,1-b][1,3]oxazol-5-yl]pyrimidin-2-amine], the inhibition at 10 µM (@ 10 uM) came to 47%.

Turning to `N#Cc1ccc(S(=O)(=O)N2CCC[C@@H](Nc3nccc(-c4c(-c5ccc(F)cc5)nc5occn45)n3)C2)cc1` [Example 55, 4-{[(3R)-3-({4-[6-(4-fluorophenyl)imidazo[2,1-b][1,3]oxazol-5-yl]pyrimidin-2-yl}amino)piperidin-1-yl]sulfonyl}benzonitrile], for the setting “read-out: Mutant B-RAF IC50”, the IC50 is 630 nM.

As for `O=S(=O)(c1cc(C(F)(F)F)cc(C(F)(F)F)c1)N1CCC[C@@H](Nc2nccc(-c3c(-c4ccc(F)cc4)nc4occn34)n2)C1` [Example 56, N-((3R)-1-{[3,5-bis(trifluoromethyl)phenyl]sulfonyl}piperidin-3-yl)-4-[6-(4-fluorophenyl)imidazo[2,1-b][1,3]oxazol-5-yl]pyrimidin-2-amine], the inhibition at 10 µM (@ 10 uM) worked out at 57%.

`COc1cccc(S(=O)(=O)N2CCC[C@@H](Nc3nccc(-c4c(-c5ccc(F)cc5)nc5occn45)n3)C2)c1` [Example 57, 4-[6-(4-fluorophenyl)imi-dazo[2,1-b][1,3]oxazol-5-yl]-N-{(3R)-1-[(3-methoxy-phenyl)sulfonyl]piperidin-3-yl}pyrimidin-2-amine]: the inhibition at 10 µM worked out at 34%.

As for `O=S(=O)(c1ccc(C(F)(F)F)cc1)N1CCC[C@@H](Nc2nccc(-c3c(-c4ccc(F)cc4)nc4occn34)n2)C1` [Example 58, 4-[6-(4-fluorophenyl)imi-dazo[2,1-b][1,3]oxazol-5-yl]-N-((3R)-1-{[4-(trifluoro-methyl)phenyl]sulfonyl}piperidin-3-yl)pyrimidin-2-amine], the 50% inhibitory concentration (IC50) was 403 nM.

For `O=C(O)c1ccc(S(=O)(=O)N2CCC[C@@H](Nc3nccc(-c4c(-c5ccc(F)cc5)nc5occn45)n3)C2)cc1` [Example 59, 4-{[(3R)-3-({4-[6-(4-fluorophenyl)imidazo[2,1-b][1,3]oxazol-5-yl]pyrimidin-2-yl}amino)piperidin-1-yl]sulfonyl}benzoic acid], the IC50 (read-out: Mutant B-RAF IC50) was 576 nM.

Turning to `O=S(=O)(c1ccc(Oc2ccccc2)cc1)N1CCC[C@@H](Nc2nccc(-c3c(-c4ccc(F)cc4)nc4occn34)n2)C1` [Example 60, 4-[6-(4-fluorophenyl)imi-dazo[2,1-b][1,3]oxazol-5-yl]-N-{(3R)-1-[(4-phenoxy-phenyl)sulfonyl]piperidin-3-yl}pyrimidin-2-amine], the inhibition at 10 µM came to 15%.

For `COc1ccc(Cl)cc1S(=O)(=O)N1CCC[C@@H](Nc2nccc(-c3c(-c4ccc(F)cc4)nc4occn34)n2)C1` [Example 61, N-{(3R)-1-[(5-chloro-2-methoxyphenyl)sulfonyl]piperidin-3-yl}-4-[6-(4-fluorophenyl)imidazo[2,1-b][1,3]oxazol-5-yl]pyrimidin-2-amine], for the setting “@ 10 uM”, the inhibition at 10 µM was 37%.

Consider `Fc1ccc(-c2nc3sccn3c2-c2ccnc(N[C@@H]3CCCNC3)n2)cc1` [Example 62], for which the inhibition at 10 µM was 45%.

Turning to `O=C(O)CCc1ccc(S(=O)(=O)N2CCC[C@@H](Nc3nccc(-c4c(-c5ccc(F)cc5)nc5occn45)n3)C2)cc1` [Example 63, 3-(4-{[(3R)-3-({4-[6-(4-fluorophenyl)imidazo[2,1-b][1,3]oxazol-5-yl]pyrimidin-2-yl}amino)piperidin-1-yl]sulfonyl}phenyl)propanoicacid], the IC50 (read-out: Mutant B-RAF IC50) is 441 nM.

`CC(=O)Nc1nc(C)c(S(=O)(=O)N2CCC[C@@H](Nc3nccc(-c4c(-c5ccc(F)cc5)nc5occn45)n3)C2)s1` [Example 64, N-(5-{[(3R)-3-({4-[6-(4-fluorophenyl)imidazo[2,1-b][1,3]oxazol-5-yl]pyrimidin-2-yl}amino)piperidin-1-yl]sulfonyl}-4-methyl-1,3-thiazol-2-yl)acetamide]: the inhibition at 10 µM (@ 10 uM) worked out at 58%.

On to `Cc1nc(C)c(S(=O)(=O)N2CCC[C@@H](Nc3nccc(-c4c(-c5ccc(F)cc5)nc5occn45)n3)C2)s1` [Example 65, N-{(3R)-1-[(2,4-dimethyl-1,3-thiazol-5-yl)sulfonyl]piper-idin-3-yl}-4-[6-(4-fluorophenyl)imidazo[2,1-b][1,3]oxazol-5-yl]pyrimidin-2-amine], for which the inhibition at 10 µM (@ 10 uM) amounted to 42%.

`Cc1nc(S(=O)(=O)N2CCC[C@@H](Nc3nccc(-c4c(-c5ccc(F)cc5)nc5occn45)n3)C2)cn1C` [Example 66, N-{(3R)-1-[(1,2-dimethyl-1H-imidazol-4-yl)sulfonyl]piper-idin-3-yl}-4-[6-(4-fluorophenyl)imidazo[2,1-b][1,3]oxazol-5-yl]pyrimidin-2-amine]: for the setting “@ 10 uM”, the inhibition at 10 µM worked out at 70%.

Take `Cc1cc(NC(=O)N2CCC[C@@H](Nc3nccc(-c4c(-c5ccc(F)cc5)nc5occn45)n3)C2)c(C(F)(F)F)o1` [Example 67, (3R)-3-({4-[6-(4-fluorophenyl)imidazo[2,1-b][1,3]oxazol-5-yl]pyrimidin-2-yl}amino)-N-[5-methyl-2-(trifluoromethyl)-3-furyl]piperidine-1-carboxamide]: the inhibition at 10 µM (@ 10 uM) worked out at 29%.

`O=C(NCC1CCCCC1)N1CCC[C@@H](Nc2nccc(-c3c(-c4ccc(F)cc4)nc4occn34)n2)C1` [Example 68, (3R)-N-(cyclohexylmethyl)-3-({4-[6-(4-fluorophenyl)imi-dazo[2,1-b][1,3]oxazol-5-yl]pyrimidin-2-yl}amino)piperidine-1-carboxamide]: the inhibition at 10 µM was found to be 42%.

Regarding `COc1ccc(NC(=O)N2CCC[C@@H](Nc3nccc(-c4c(-c5ccc(F)cc5)nc5occn45)n3)C2)c(OC)c1` [Example 69, (3R)-N-(2,4-dimethoxy-phenyl)-3-({4-[6-(4-fluorophenyl)imidazo[2,1-b][1,3]oxazol-5-yl]pyrimidin-2-yl}amino)piperidine-1-carboxamide], the inhibition at 10 µM (@ 10 uM) turned out to be 42%.

As to `COc1ccc(Cl)cc1NC(=O)N1CCC[C@@H](Nc2nccc(-c3c(-c4ccc(F)cc4)nc4occn34)n2)C1` [Example 70, (3R)-N-(5-chloro-2-methoxyphenyl)-3-({4-[6-(4-fluorophenyl)imidazo[2,1-b][1,3]oxazol-5-yl]pyrimidin-2-yl}amino)piperidine-1-carboxamide], under “@ 10 uM”, the inhibition at 10 µM was determined as 49%.
